Structures are written as SMILES.

We go through six compounds from publication PMC8344253, “Identifying requirements for RSK2 specific inhibitors” (Journal of Enzyme Inhibition and Medicinal Chemistry, 2021).

Series [1] has as its target T1, RSK2 (Homo sapiens, UniProt P51812). Put plainly: FRET kinase binding assay (LanthaScreen Eu Kinase Binding Assay), full-length RSK2. The settings on record: for % Uninhibited kinase at 30 μM: 30 μM inhibitor; for IC50: 15 nM tracer; for Relative Off-Rate: slope of change in IC50 over time after 2 h pre-incubation, log-log fit. As to the method:
(§1) Normalised EMR was calculated in MATLAB (Mathworks).
(§2) Hill slope and IC50 were unconstrained. […] Statistical significance is considered using α = 0.01.
(In TR-FRET formats the signal depends on donor and acceptor labels being close together.)

The target of series [2] is T1, RSK2. Kind of series: ELISA kinase activity assay, RSK2. Type of series: biochemical. Particulars: for IC50: 10 μM ATP, 30 min reaction; for % Uninhibited kinase at 30 μM: 30 μM inhibitor. As to the method:
The activity of RSK2 was measured as previously reported. Briefly, 1 nM kinase, inhibitor or vehicle (1% DMSO), and 10 μM ATP in kinase buffer were dispensed into the wells of a 96-well plate with adsorbed glutathione S-transferase fusion protein containing the sequence […]. The reaction was stopped after 30 min, during the linear phase, with the addition of equal volume 500 mM EDTA, then phosphorylated peptide was measured by ELISA. Luminescence from wells with EDTA added before ATP was subtracted, then luminescence was normalised to the average vehicle luminescence. […] After 2 h incubation, the kinase/inhibitor mix was diluted 100-fold in kinase buffer. […] The reaction was stopped at the time indicated in the figures with the addition of EDTA, and amount of phosphorylated peptide was measured by ELISA.
as §2
(In general: ELISA stands for enzyme-linked immunosorbent assay.)

For another series, the system named is 247 kinases. Details: method as in PMID 27528706. The settings on record: representatives from all kinase families; cited from earlier work.
For the next series, the system named is RSK1/2. Particulars: cell-based assay; cited from earlier work.
The target in another series is T2, RSK2 NTKD (Homo sapiens, UniProt P51812).
T2 construct: domain, containing residues 1–389; made in house
Put plainly: FRET kinase binding assay, isolated RSK2 NTKD. Particulars: for % Uninhibited kinase at 30 μM: 30 μM inhibitor. The protocol: as §1
Recombinant baculoviruses were generated by the Gateway cloning using the BaculoDirect Baculovirus Expression System (Invitrogen) according to the manufacturer's manual.The cDNA for RSK2 NTKD was amplified by conventional PCR, then cloned into pENTR-D-TOPO (pENTR Directional TOPO Cloning Kits, Invitrogen). The resulting Gateway Entry vectors were used for making the baculoviruses in the same way as RSK1 and RSK2 WT viruses. These constructs have 6xHis sequence in their C-termini and recombinant proteins were purified by Ni-NTA Agarose (Qiagen).
as §2

The target of series [3] is T3, RSK1 (Homo sapiens, UniProt Q15418). Kind of series: FRET kinase binding assay, RSK1. The settings on record: for % Uninhibited kinase at 30 μM: 30 μM inhibitor. As to the method:
as §1, §2
The results from the pre-incubation experiments provide an indirect measure of the inhibitor off rate whereas the simultaneous addition of inhibitor and tracer provide an indirect measure of the inhibitor on rate. […] The mechanism that accounts for the unique properties of RSK2 interacting with 1c are unknown.

Series [4] has as its target T1, RSK2. Kind of series: ELISA dilution reaction (100-fold dilution after 2 h pre-incubation), RSK2. Type of series: biochemical. The protocol: The activity of RSK2 was measured as previously reported. Briefly, 1 nM kinase, inhibitor or vehicle (1% DMSO), and 10 μM ATP in kinase buffer were dispensed into the wells of a 96-well plate with adsorbed glutathione S-transferase fusion protein containing the sequence […]. The reaction was stopped after 30 min, during the linear phase, with the addition of equal volume 500 mM EDTA, then phosphorylated peptide was measured by ELISA. Luminescence from wells with EDTA added before ATP was subtracted, then luminescence was normalised to the average vehicle luminescence. […] After 2 h incubation, the kinase/inhibitor mix was diluted 100-fold in kinase buffer. […] After the dilution, kinase/inhibitor solution and 3.3 μM ATP in kinase buffer were mixed to initiate the reaction. The reaction was stopped at the time indicated in the figures with the addition of EDTA, and amount of phosphorylated peptide was measured by ELISA.
To further analyse the stability of RSK2 with 1c the ELISA assay was used as an orthogonal approach. […] Inhibition of kinase activity was measured at differing time points and compared to that obtained with a concentration of inhibitor equal to the concentration after dilution. […]
Figure 6. […] After dilution, ATP was added and the reaction proceeded for the times indicated, then the reaction was stopped with EDTA and the amount of phosphorylated substrate was measured by ELISA. […]

For series [5], the target named is T3, RSK1. Kind of series: ELISA dilution reaction (100-fold dilution after 2 h pre-incubation), RSK1. The series is classed as biochemical. The settings on record: 4 h after 100-fold dilution.
The target in series [6] is T3, RSK1. Kind of series: ELISA kinase activity assay, RSK1. The series is classed as biochemical. The settings on record: RSK1, 2 h pre-incubation.
A further series concerns the target RSK3 (Homo sapiens, UniProt Q15349). Kind of series: FRET kinase binding assay, GST-tagged RSK3.
In another series the target is RSK4 (Homo sapiens, UniProt Q9UK32). Kind of series: FRET kinase binding assay, GST-tagged RSK4.
The mark [7] stands for this setting: FRET, RSK2, 5 min kinase-inhibitor incubation.
[8] abbreviates: FRET, RSK2, 2 h kinase-inhibitor incubation before tracer.

T1 sequence (P51812 whole entry): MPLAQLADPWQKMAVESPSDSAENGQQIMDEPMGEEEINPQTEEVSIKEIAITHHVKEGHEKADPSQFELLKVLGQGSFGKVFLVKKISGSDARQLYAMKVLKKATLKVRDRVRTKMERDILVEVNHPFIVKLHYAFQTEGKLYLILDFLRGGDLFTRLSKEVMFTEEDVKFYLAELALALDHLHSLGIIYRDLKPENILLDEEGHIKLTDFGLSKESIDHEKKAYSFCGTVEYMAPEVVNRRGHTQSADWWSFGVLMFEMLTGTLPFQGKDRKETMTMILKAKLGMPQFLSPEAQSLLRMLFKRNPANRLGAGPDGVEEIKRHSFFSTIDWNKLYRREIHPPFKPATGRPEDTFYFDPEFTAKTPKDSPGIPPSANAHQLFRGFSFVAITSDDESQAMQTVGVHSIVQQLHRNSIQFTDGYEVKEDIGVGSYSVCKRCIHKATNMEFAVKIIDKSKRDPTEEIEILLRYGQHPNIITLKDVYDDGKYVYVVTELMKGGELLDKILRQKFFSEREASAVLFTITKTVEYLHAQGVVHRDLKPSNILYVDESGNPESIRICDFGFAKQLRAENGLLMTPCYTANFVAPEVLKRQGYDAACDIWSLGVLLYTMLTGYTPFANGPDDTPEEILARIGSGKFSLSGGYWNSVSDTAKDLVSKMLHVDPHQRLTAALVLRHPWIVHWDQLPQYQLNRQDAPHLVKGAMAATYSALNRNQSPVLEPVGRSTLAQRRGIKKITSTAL
T3 sequence (Q15418 whole entry): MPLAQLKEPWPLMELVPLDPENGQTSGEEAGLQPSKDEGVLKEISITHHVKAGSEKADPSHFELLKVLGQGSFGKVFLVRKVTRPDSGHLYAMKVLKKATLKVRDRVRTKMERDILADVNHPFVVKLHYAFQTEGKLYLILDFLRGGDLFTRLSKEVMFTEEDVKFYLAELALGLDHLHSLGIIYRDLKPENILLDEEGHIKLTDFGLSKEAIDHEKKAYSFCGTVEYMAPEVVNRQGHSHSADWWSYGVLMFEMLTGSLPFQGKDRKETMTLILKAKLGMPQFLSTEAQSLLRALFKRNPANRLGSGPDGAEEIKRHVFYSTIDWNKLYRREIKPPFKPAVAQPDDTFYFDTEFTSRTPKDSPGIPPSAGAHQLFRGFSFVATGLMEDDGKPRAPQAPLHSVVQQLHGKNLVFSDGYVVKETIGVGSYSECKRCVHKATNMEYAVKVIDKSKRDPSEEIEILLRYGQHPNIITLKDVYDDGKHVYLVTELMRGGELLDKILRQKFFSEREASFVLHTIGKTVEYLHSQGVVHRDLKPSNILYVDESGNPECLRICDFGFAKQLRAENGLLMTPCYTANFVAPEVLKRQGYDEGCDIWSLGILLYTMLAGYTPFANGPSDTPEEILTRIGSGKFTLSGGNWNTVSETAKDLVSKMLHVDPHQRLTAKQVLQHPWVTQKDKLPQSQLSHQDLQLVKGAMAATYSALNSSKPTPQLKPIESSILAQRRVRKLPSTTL
T2 sequence (P51812 1-389): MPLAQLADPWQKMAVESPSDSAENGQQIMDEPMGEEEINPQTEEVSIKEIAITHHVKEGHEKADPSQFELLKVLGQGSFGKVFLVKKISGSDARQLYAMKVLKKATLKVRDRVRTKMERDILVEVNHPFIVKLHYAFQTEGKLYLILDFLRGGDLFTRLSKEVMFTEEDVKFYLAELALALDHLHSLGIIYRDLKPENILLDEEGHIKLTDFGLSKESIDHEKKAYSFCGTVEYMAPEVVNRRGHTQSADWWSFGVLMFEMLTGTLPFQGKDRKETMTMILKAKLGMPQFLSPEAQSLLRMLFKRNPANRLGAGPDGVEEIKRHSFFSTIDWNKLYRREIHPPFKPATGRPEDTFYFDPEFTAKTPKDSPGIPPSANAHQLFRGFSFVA
Sequence of RSK4 (Q9UK32 whole entry, species assumed): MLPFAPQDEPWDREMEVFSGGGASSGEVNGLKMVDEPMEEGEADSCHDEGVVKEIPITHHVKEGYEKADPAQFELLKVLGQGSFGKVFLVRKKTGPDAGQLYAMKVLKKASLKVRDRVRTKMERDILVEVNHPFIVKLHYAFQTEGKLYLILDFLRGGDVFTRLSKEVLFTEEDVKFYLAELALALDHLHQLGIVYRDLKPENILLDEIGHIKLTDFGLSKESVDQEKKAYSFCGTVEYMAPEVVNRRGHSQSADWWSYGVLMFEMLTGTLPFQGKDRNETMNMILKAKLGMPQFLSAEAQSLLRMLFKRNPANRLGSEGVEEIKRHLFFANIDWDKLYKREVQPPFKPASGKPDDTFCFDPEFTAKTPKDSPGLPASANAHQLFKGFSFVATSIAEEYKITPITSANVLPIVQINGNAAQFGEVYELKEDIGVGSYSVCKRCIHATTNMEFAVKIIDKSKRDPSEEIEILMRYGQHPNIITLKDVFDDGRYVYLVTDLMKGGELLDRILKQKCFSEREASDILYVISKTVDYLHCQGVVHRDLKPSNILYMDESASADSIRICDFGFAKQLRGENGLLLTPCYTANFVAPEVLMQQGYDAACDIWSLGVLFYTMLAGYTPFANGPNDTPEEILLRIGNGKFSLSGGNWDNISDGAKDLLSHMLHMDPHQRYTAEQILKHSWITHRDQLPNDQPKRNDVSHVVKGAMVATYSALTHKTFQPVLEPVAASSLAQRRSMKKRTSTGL
Sequence of RSK3 (Q15349 whole entry, species assumed): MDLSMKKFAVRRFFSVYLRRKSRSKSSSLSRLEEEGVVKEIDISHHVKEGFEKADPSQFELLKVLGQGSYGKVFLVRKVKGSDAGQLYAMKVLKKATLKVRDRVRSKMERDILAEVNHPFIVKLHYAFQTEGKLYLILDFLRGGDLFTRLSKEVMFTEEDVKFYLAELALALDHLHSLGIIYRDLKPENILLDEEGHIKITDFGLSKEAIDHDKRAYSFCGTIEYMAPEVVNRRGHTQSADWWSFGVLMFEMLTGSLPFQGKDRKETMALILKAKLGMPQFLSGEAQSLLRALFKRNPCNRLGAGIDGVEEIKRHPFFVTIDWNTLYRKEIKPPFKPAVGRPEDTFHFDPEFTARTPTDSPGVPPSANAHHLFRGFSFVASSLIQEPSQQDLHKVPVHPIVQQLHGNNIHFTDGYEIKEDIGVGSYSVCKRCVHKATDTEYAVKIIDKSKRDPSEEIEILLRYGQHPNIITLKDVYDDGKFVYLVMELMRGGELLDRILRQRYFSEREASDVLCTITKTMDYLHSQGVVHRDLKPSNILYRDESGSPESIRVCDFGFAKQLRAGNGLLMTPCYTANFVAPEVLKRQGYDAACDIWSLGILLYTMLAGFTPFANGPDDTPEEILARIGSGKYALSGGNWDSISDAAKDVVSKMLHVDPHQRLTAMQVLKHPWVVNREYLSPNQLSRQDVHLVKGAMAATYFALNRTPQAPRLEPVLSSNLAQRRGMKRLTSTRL
Description for RSK3: (§3) For RSK1 and RSK2 NTKD, 2 nM Eu Streptavidin and 2 nM Biotin anti-His antibody (Invitrogen) and for RSK3/4, 2 nM Eu anti-GST antibody (Invitrogen) were used in place of the Eu anti-His antibody. […] The corresponding average EMR of wells without inhibitor or kinase was subtracted, and background-subtracted EMR was normalised to average vehicle control. Normalised EMR was calculated in MATLAB (Mathworks).
(§4) Hill slope and IC50 were unconstrained. […] Curve fitting and statistics were calculated in Prism 9.0.2 (Graphpad). Statistical significance is considered using α = 0.01.
(§5) This assay uses an ATP-mimetic tracer labelled with an acceptor fluorophore and a recombinant His-tagged kinase, which is indirectly labelled with a europium donor chelated to an anti-His antibody. Interaction of the tracer with the kinase generates a FRET signal. […] GST-tagged RSK3 and RSK4 were purchased and tested with a labelled anti-GST antibody in the FRET assay.
Description for RSK4: as §3, §4, §5

Usually IC50 stands for the concentration at which inhibition is half-maximal. In the case of `CCCC1CC(Oc2c(-c3ccc(O)cc3)oc3cc(O)cc(O)c3c2=O)C(O)C(OC(C)=O)C1OC(C)=O` (stereo not drawn) [Inhibitor 1b, C5”-n-propyl cyclitol SL0101], the “% Uninhibited kinase at 30 μM” value at RSK2 [1] (FRET, RSK2, 5 min incubation) worked out at 49.7%; on RSK2 [1] (FRET, RSK2, 2 h incubation), 1.3%; at RSK2 [2] (RSK2, 2 h pre-incubation) it was 15.7%. The IC50 at RSK2 [1] (setting [7]) worked out at 24100 nM; at RSK2 [1] (setting [8]) it was 215 nM; on RSK2 [2] (RSK2, 2 h pre-incubation), 183 nM. The “Relative Off-Rate” value on RSK2 [1] (RSK2) is 0.601 log10(nM/min). Besides, the “Specificity in screen of 247 kinases” value in the series on 247 kinases is reported as “primarily targeted RSK1/2”. Further, in the series on RSK1/2, the “Inhibition of proliferation when RSK1/2 silenced” value was “ineffective”.
In general, Inhibition refers to the change of the read-out against control, counted positive when it falls. A lower Inhibition goes with little suppression. For orientation: inhibition means how much of the control response was suppressed. Higher therefore signals a response far below the control. As to `CCCNC(=O)O[C@@H]1[C@@H](OC(C)=O)[C@@H](O)[C@H](Oc2c(-c3ccc(O)cc3)oc3cc(O)cc(O)c3c2=O)O[C@H]1CCC` [Inhibitor 1c, (2 s,3R,4S,5S,6S)-2-((5,7-dihydroxy-2–(4-hydroxyphenyl)-4-oxo-4H-chromen-3-yl)oxy)-3-hydroxy-6-propyl-5-((propylcarbamoyl)oxy)tetrahydro-2H-pyran-4-yl acetate], the “% Uninhibited kinase at 30 μM” value at RSK2 [1] (FRET, RSK2, 5 min incubation) is reported as 26.2%; on RSK2 [1] (FRET, RSK2, 2 h incubation), 0.3%; at RSK2 NTKD (2 h incubation), 11.1%; at RSK1 [3] (FRET, RSK1, 2 h incubation) it was 6.1%; on RSK2 [2] (RSK2, 2 h pre-incubation), 9.4%. Also, the IC50 on RSK2 [1] (setting [7]) was 6400 nM; at RSK2 [1] (setting [8]), 37.4 nM; on RSK2 NTKD (2 h incubation), 12 nM; on RSK1 [3] (FRET, RSK1, 2 h incubation), 12.8 nM; against RSK2 [2] (RSK2, 2 h pre-incubation), 84.7 nM. Further, at RSK2 [1] (FRET, RSK2, 5 min pre-incubation), the “Inhibition at 8-fold higher concentration than the IC50” value amounted to 75%. Also, at RSK2 [1] (RSK2, relative off-rate comparison), the “Off rate lower than that of 1d, 1e, and 1f” value is “more than three-fold”. Moreover, the Relative on-rate is reported as −1.204 log10(nM/min) at RSK2 [1] (RSK2, change in IC50 over time, tracer added simultaneously with inhibitor) and −0.719 log10(nM/min) at RSK1 [3] (RSK1, change in IC50 over time, tracer added simultaneously with inhibitor). Moreover, the “Off: On Ratio” value on RSK2 [1] (RSK2, ratio of absolute value of relative off-rate to on-rate) amounted to 0.10; at RSK1 [3] (RSK1, ratio of absolute value of relative off-rate to on-rate) it was 0.25. For the same compound, the “Relative Off-Rate” value is 0.126 log10(nM/min) on RSK2 [1] (RSK2) and 0.176 log10(nM/min) on RSK1 [3] (RSK1, slope of change in IC50 over time after 2 h pre-incubation, log-log fit). Also, the inhibition at 1.5 µM against RSK2 [4] (over a 12 h time course after 100-fold dilution, 100 nM RSK2 pre-incubated 2 h with 1.5 μM 1c) was approximately 50%. The “Inhibition of RSK1 after the dilution” value at RSK1 [5] is on record as “not inhibited”.
For `CCCNC(=O)OC1C(CCC)CC(Oc2c(-c3ccc(O)cc3)oc3cc(O)cc(O)c3c2=O)C(O)C1OC(C)=O` (stereo not drawn) [Inhibitor 1d], the “% Uninhibited kinase at 30 μM” value on RSK2 [1] (FRET, RSK2, 2 h incubation) is listed as 0.5%; on RSK2 [2] (RSK2, 2 h pre-incubation) it was 11.1%. In addition, the IC50 was 26.3 nM at RSK2 [1] (setting [8]) and 74.1 nM at RSK2 [2] (RSK2, 2 h pre-incubation). Also, the “Relative Off-Rate” value at RSK2 [1] (RSK2) is 0.548 log10(nM/min).
Usually melting point stands for the temperature, or range, at which the solid turns liquid. `CCCNC(=O)O[C@@H]1[C@@H](OC(=O)NCCC)[C@@H](O)[C@H](Oc2c(-c3ccc(O)cc3)oc3cc(O)cc(O)c3c2=O)O[C@H]1CCC` [Inhibitor 1e, (2 s,3S,4S,5R,6S)-6-((5,7-dihydroxy-2–(4-hydroxyphenyl)-4-oxo-4H-chromen-3-yl)oxy)-5-hydroxy-2-propyltetrahydro-2H-pyran-3,4-diyl bis(n-propylcarbamate)]: the melting point lay within 158 to 160 °C. Moreover, at RSK2 [1] (FRET, RSK2, 2 h incubation), the “% Uninhibited kinase at 30 μM” value turned out to be 0.8%. The compound also showed an IC50 on RSK2 [1] (setting [8]) of 83.7 nM. Moreover, the “Relative Off-Rate” value at RSK2 [1] (RSK2) was 0.417 log10(nM/min).
For the compound `CCCNC(=O)OC1C(CCC)CC(Oc2c(-c3ccc(O)cc3)oc3cc(O)cc(O)c3c2=O)C(O)C1OC(=O)NCCC` (stereo not drawn) [Inhibitor 1f], on RSK2 [1] (FRET, RSK2, 2 h incubation), the “% Uninhibited kinase at 30 μM” value came to 1.3%. Besides, on RSK2 [1] (setting [8]), the IC50 turned out to be 90.9 nM. For the same compound, at RSK2 [1] (RSK2), the “Relative Off-Rate” value is given as 0.630 log10(nM/min).
Turning to `CC(=O)OC1C(C)OC(Oc2c(-c3ccc(O)cc3)oc3cc(O)cc(O)c3c2=O)C(O)C1OC(C)=O` (stereo not drawn) [SL0101, reference compound], the “Inhibition after 5 min incubation” value at RSK2 [1] (FRET, RSK2, 5 min incubation) was approximately 50%; on RSK2 NTKD (5 min incubation), approximately 80%; at RSK1 [3] (FRET, RSK1, 5 min incubation), 80%. In addition, the “% Uninhibited kinase at 30 μM” value came to 45.7% at RSK2 [1] (FRET, RSK2, 5 min incubation); 4.3% at RSK2 [1] (FRET, RSK2, 2 h incubation); 20.1% on RSK2 NTKD (5 min incubation); 11.5% at RSK2 NTKD (2 h incubation); 19.2% at RSK1 [3] (FRET, RSK1, 5 min incubation); 16.7% at RSK1 [3] (FRET, RSK1, 2 h incubation). Further, the “% Uninhibited kinase at 30 μM” value was 31.6% on RSK2 [2] (RSK2, 5 min pre-incubation); 13.9% at RSK2 [2] (RSK2, 2 h pre-incubation); 3.9% at RSK1 [6] (30 μM inhibitor); 90.3% at RSK3 (RSK3, 2 h incubation, 30 μM inhibitor); 70.9% on RSK4 (RSK4, 2 h incubation, 30 μM inhibitor). Also, the “Increase in IC50 with 5 min vs 2 h incubation” value at RSK2 NTKD was “two-fold”. In addition, the 50% inhibitory concentration (IC50) at RSK1 [3] (FRET, RSK1, 5 min incubation) came to 774 nM; on RSK1 [3] (FRET, RSK1, 2 h incubation), 193 nM; at RSK1 [6] it was 70.7 nM. Also, the “Increase in IC50 with 5 min vs 2 h pre-incubation” value on RSK2 [2] (RSK2) was “two-fold”. In addition, the “Inhibition of RSK2 after the dilution” value at RSK2 [4] (4 h after 100-fold dilution, 100 nM RSK2 pre-incubated 2 h with 5 μM SL0101) is given as “unable to inhibit”. Further, the “Inhibition of RSK3” value on RSK3 (2 h incubation) was “did not inhibit”. On RSK4 (2 h incubation), the “Inhibition of RSK4” value is “did not inhibit”.
